Laboratory results taken from patent US4738983A, “Ethylenediamine and guanidine-derivatives” (Degussa aktiengesellschaft, priority 1982, dated 1988).

Test system: carbachol spasm of the rat stomach
Assay: carbachol spasm of the rat stomach (stomach-spasmolytic effect)
Assay type: in vivo
Conditions: intraduodenal, relative to Ranitidin
Text: The test substances are applied intraduodenally. In this model, the stomach-spasmolytic effect of the compound according to Example 1 is, for example 3.8 times greater than that of "Ranitidin".

CNC(=C[N+](=O)[O-])NCCSCc1ccc(CNC2C3CC4C(C3)C42)o1 (stereo not shown) [Example 1, N-[2-[[5-(tricyclo(2.2.1.0^2.6)hept-3-yl-amino-methyl)-2-furanyl]-methylthio]-ethyl]-N'-methyl-2-nitro-1,1-ethylene-diamine]
stomach-spasmolytic effect, times greater than that of Ranitidin: 3.8 times
